Calls of active or inactive are those of the source.
What was measured:
[1] = target: Heat shock protein HSP 90-alpha (Homo sapiens, UniProt P07900); assay type: functional, organism-based
[2] = cells; assay type: functional
[3] = Vero E6 cell cytotoxicity, dose response, cytotoxicity control for non-replicating M. tuberculosis project, secondary assay (AID 492998); assay type: functional, VeroE6; conditions: Vero C1008
[4] = test system: INS1; assay: beta cell apoptosis inhibitors, cytokine rescue, dose response, luminescence, retest (AID 449756); assay type: functional, cell-based; conditions: Rattus norvegicus;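 further: cell death triggered by IL-1 beta plus TNF-alpha plus IFN-gamma mixture; protective hits raise ATP signal compared with cytokine alone wells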
[5] = growth suppression of PTEN-null colon cells, dose response, cell-based, HCT116 PTEN knockout (AID 1047); assay type: functional;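 further: HCT116 colon tumor cells with PTEN knocked out; cells exposed to compound for 60 hours before readout; potency for loss of cell viability measured by luminescence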
[6] = target: Delta-type opioid receptor (Homo sapiens, UniProt P41143); assay: Counterscreen for agonists of heterodimerization of the mu 1 (OPRM1) and delta 1 (OPRD1) opioid receptors: Luminescence-based cell-based high throughput dose response assay to identify agonists of OPRD1 homodimerization. [Related pubchem assays (depositor defined):AID504326, AID504355, AID504692, AID504904, AID504905]; assay type: functional
Chain of Delta-type opioid receptor (P41143 whole entry): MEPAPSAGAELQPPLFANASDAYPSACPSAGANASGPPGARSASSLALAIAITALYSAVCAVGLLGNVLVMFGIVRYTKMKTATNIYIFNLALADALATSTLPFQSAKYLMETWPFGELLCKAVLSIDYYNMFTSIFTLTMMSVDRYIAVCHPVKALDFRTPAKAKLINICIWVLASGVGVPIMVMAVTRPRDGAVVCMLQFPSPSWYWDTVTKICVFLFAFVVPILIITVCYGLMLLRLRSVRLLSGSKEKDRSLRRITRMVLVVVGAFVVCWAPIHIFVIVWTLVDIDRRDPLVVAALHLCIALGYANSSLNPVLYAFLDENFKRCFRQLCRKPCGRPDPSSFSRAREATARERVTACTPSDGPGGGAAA

[7] = THP-1 cell cytotoxicity, dose response, cytotoxicity control for non-replicating M. tuberculosis project (AID 489025); assay type: functional
[8] = target: 5-hydroxytryptamine receptor 5A (Homo sapiens, UniProt P47898); assay: Counterscreen for agonists of OPRM1-OPRD1 heterodimerization: luminescence-based cell-based high throughput dose response assay to identify agonists of 5-hydroxytryptamine (serotonin) 5A receptor (HTR5A). [Related pubchem assays (depositor defined):AID504326, AID504355, AID504692, AID504904, AID504905]; assay type: functional
Chain of 5-hydroxytryptamine receptor 5A (P47898 whole entry): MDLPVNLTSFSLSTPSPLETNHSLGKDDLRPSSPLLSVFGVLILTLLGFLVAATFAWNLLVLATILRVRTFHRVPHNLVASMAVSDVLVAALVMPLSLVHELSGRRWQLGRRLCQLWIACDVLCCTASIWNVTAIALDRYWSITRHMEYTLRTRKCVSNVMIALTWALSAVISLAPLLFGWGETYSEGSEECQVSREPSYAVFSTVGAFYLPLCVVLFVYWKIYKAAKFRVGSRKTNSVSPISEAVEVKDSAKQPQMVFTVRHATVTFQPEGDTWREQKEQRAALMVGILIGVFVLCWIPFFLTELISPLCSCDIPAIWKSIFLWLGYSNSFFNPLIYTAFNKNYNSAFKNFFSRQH

[9] = target: T1, Mannose-6-phosphate isomerase (Homo sapiens, UniProt P34949); assay: human PMI inhibitors, high substrate, primary screen, biochemical, fluorescence intensity, high mannose 6-phosphate (AID 1220)
T1 sequence (P34949 whole entry): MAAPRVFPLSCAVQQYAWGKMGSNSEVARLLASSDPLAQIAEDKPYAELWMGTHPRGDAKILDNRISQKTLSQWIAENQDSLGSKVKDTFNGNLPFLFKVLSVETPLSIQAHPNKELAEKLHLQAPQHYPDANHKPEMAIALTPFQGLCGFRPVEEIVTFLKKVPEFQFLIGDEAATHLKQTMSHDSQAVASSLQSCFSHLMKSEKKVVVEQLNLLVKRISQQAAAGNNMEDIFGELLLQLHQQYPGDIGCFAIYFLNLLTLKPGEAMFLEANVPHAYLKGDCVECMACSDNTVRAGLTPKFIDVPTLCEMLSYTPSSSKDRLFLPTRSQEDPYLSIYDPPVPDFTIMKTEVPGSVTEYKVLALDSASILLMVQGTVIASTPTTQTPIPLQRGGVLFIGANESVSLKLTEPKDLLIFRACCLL

[10] = target: Sphingosine 1-phosphate receptor 2 (Homo sapiens, UniProt O95136); assay: Dose Response Cell Based Assay for Antagonists of the S1P2 Receptor. [Related pubchem assays: 856, 736 ]; assay type: functional
Chain of Sphingosine 1-phosphate receptor 2 (O95136 whole entry): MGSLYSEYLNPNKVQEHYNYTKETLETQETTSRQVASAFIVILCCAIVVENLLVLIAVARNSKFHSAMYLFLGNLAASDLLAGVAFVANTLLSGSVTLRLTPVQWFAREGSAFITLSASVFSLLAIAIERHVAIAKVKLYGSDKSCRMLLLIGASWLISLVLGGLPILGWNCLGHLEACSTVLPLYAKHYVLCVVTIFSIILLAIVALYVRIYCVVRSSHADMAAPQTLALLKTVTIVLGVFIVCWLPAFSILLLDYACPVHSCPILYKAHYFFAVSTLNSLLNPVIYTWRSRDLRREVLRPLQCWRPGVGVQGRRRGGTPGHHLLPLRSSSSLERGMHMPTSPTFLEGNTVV

[11] = growth suppression of beta-catenin-knockout colon cells, dose response, cell-based, HCT116, human colon tumor (AID 1045); assay type: functional;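 further: HCT116 colon tumor cells with beta catenin knocked out; cells exposed to compound for 60 hours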
[12] = target: Mu-type opioid receptor (Homo sapiens, UniProt P35372); assay: Counterscreen for agonists of heterodimerization of the mu 1 (OPRM1) and delta 1 (OPRD1) opioid receptors: Luminescence-based cell-based high throughput dose response assay to identify agonists of OPRM1 homodimerization.; assay type: functional;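 further: U2OS cells expressing OPRM1 and beta-arrestin as split beta-galactosidase partners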
Chain of Mu-type opioid receptor (P35372 whole entry): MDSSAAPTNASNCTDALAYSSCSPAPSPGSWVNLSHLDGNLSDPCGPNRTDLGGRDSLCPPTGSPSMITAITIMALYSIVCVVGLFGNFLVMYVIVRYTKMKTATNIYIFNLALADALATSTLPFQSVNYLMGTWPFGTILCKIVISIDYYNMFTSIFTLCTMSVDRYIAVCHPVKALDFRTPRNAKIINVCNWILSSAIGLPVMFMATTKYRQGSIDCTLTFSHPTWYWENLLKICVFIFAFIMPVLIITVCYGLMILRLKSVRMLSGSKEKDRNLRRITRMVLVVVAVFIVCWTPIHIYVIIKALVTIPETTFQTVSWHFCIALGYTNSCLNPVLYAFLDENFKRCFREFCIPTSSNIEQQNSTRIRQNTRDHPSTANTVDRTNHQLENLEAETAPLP

[13] = target: T2, High affinity choline transporter 1 (Homo sapiens, UniProt Q9GZV3); assay: CHT inhibitors, dose response, cell-based, 5-point CRC, membrane potential dye (AID 504840); assay type: functional
T2 sequence (Q9GZV3 whole entry): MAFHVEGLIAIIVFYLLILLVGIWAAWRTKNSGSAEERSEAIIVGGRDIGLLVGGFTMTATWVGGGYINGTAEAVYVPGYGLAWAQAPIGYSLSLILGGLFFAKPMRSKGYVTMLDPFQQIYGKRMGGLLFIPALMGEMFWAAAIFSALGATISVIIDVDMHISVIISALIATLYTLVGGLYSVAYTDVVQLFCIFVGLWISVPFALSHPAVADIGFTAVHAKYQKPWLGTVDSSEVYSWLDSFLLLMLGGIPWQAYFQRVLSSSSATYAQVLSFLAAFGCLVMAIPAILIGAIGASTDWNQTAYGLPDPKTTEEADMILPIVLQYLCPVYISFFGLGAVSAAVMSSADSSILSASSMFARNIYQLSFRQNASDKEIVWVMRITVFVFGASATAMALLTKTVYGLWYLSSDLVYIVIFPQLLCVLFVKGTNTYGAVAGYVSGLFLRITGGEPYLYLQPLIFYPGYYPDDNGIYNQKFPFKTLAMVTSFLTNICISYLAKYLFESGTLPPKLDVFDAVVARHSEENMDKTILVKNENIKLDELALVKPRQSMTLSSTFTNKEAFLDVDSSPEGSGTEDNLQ

[14] = target: Eukaryotic translation initiation factor 4E (Mus musculus, UniProt P63073); assay: eIF4E–eIF4G protein interaction inhibitors, dose response, biochemical, TR-FRET (AID 855); assay type: functional;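 further: potency for disrupting eIF4E binding to eIF4GI seen as loss of FRET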
Chain of Eukaryotic translation initiation factor 4E (P63073 whole entry): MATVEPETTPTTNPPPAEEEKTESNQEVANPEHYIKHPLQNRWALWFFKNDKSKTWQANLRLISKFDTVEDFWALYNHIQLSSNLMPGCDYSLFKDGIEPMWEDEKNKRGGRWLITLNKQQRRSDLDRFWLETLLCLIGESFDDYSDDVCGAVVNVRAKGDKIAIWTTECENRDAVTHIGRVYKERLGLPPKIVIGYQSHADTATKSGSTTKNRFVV

[15] = THP-1 cell cytotoxicity, dose response, cytotoxicity control for Vif-APOBEC3G degradation inhibitor project, THP-1 cells (AID 1117359); assay type: functional; conditions: Human immunodeficiency virus 1, THP-1
[16] = target: Induced myeloid leukemia cell differentiation protein Mcl-1 (Homo sapiens, UniProt Q07820); assay type: functional
Chain of Induced myeloid leukemia cell differentiation protein Mcl-1 (Q07820 whole entry): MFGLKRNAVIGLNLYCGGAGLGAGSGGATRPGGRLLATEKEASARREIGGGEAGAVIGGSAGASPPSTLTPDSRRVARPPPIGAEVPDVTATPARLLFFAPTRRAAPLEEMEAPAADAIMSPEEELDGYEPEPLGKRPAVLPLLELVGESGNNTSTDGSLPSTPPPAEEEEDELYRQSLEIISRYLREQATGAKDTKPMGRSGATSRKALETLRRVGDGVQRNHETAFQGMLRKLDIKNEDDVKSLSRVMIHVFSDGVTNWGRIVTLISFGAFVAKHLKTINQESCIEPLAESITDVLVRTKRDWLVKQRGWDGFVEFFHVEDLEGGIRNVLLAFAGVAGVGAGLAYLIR

[17] = target: UDP-galactopyranose mutase (Mycobacterium tuberculosis, UniProt P9WIQ1); assay: Inhibitors of Mycobacterium tuberculosis UDP-galactopyranose mutase (UGM) enzyme Measured in Biochemical System Using Plate Reader - 2105-02_Inhibitor_Dose_CherryPick_Activity. [Related pubchem assays (depositor defined):AID504439]
Chain of UDP-galactopyranose mutase (P9WIQ1 whole entry): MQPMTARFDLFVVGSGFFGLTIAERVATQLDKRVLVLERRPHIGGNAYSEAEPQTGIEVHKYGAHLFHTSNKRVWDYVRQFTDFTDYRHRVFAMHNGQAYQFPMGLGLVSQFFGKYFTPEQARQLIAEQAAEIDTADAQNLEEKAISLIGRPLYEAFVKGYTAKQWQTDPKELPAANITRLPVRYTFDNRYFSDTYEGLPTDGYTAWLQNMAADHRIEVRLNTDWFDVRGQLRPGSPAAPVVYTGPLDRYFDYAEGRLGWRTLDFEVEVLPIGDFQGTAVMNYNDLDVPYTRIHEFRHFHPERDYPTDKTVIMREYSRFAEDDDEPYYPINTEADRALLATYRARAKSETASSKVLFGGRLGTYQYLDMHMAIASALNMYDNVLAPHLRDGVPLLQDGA

[18] = target: Glucose-6-phosphate 1-dehydrogenase (Homo sapiens, UniProt P11413); assay: human G6PD enzyme inhibitors, dose response, selectivity assay for P. falciparum G6PD inhibitor project, biochemical, fluorescence (AID 504792); assay type: functional
Chain of Glucose-6-phosphate 1-dehydrogenase (P11413 whole entry): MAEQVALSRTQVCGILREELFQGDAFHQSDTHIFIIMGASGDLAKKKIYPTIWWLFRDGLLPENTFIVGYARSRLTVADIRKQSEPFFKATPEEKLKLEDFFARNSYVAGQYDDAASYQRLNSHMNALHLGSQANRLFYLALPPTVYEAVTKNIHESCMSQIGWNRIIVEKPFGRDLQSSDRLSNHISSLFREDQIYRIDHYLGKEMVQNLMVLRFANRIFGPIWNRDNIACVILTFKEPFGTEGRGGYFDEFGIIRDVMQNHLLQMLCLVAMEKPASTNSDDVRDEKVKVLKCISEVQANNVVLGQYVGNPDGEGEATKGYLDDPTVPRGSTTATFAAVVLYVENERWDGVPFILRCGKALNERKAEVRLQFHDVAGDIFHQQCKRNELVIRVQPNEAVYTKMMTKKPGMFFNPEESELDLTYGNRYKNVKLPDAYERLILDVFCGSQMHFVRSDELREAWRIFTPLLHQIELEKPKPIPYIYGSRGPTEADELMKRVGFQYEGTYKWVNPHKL

[19] = target: T3, Long-chain-fatty-acid--AMP ligase FadD28 (Mycobacterium tuberculosis, UniProt P9WQ59); assay: Fluorescence polarization aasay to screen for inhibitors that compete for the binding of FadD28 to a bisubstrate Measured in Biochemical System Using Plate Reader - 2147-01_Inhibitor_Dose_CherryPick_Activity.; assay type: functional, Mycobacterium tuberculosis H37Rv
T3 sequence (P9WQ59 whole entry): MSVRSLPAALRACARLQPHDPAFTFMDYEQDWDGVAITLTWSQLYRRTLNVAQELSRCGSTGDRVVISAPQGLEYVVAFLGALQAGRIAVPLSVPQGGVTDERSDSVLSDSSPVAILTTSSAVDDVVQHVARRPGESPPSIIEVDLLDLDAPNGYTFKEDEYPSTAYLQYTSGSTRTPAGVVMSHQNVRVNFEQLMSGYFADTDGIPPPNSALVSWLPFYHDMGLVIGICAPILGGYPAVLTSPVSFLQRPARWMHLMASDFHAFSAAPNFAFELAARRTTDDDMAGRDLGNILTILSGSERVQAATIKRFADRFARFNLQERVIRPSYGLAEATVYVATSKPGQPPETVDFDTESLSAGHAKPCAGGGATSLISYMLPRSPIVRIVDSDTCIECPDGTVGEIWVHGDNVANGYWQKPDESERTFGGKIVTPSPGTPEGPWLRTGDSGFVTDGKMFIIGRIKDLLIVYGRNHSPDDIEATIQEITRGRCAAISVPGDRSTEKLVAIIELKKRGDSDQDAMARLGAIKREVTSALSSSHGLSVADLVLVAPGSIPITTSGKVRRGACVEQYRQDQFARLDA

[20] = test system: HEK293; assay: cells; assay type: functional, cell-based; conditions: Homo sapiens
[21] = target: Nuclear receptor subfamily 0 group B member 1 (Homo sapiens, UniProt P51843); assay: Luminescence-based cell-based high throughput dose response assay for inhibitors of the orphan nuclear receptor subfamily 0, group B, member 1 (DAX1; NR0B1). [Related pubchem assays (depositor defined):AID504766, AID504790]; assay type: functional
Chain of Nuclear receptor subfamily 0 group B member 1 (P51843 whole entry): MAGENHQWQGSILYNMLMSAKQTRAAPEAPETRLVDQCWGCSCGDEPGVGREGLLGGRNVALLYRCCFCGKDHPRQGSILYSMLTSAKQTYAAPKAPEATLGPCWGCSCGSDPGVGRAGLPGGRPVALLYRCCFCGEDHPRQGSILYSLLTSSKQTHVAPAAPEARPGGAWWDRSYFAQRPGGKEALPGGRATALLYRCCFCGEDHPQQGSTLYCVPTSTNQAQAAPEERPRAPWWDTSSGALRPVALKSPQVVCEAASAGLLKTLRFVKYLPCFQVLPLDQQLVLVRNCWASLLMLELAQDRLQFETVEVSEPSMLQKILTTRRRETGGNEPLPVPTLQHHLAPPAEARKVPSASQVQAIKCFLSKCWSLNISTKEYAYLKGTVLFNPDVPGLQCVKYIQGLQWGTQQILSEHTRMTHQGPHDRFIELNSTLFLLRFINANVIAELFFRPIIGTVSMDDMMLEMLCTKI

[22] = target: T4, Tyrosine-protein phosphatase non-receptor type 7 (Homo sapiens, UniProt P35236); assay type: functional
T4 sequence (P35236 whole entry): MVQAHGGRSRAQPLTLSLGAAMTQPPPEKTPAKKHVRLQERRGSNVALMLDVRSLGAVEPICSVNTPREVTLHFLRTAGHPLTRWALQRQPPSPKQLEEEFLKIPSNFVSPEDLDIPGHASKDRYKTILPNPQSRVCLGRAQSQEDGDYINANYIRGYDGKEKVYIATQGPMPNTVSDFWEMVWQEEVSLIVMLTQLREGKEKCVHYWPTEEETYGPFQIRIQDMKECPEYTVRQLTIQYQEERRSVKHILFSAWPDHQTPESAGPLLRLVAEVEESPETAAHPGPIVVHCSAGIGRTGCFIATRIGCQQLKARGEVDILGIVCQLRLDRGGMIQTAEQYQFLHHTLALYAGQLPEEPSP

[23] = target: Glyceraldehyde-3-phosphate dehydrogenase (Homo sapiens, UniProt P04406)
Chain of Glyceraldehyde-3-phosphate dehydrogenase (P04406 whole entry): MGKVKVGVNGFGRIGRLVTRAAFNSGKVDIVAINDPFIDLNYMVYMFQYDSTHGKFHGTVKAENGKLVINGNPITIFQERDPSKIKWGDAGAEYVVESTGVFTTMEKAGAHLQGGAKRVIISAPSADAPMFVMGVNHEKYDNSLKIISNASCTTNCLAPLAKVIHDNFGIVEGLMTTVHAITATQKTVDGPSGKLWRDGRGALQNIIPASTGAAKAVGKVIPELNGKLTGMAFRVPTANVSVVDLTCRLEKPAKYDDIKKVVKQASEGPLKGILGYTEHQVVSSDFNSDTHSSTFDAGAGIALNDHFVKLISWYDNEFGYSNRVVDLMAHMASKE

[24] = target: T5, Dual specificity protein phosphatase 6 (Rattus norvegicus, UniProt Q64346); assay type: functional
T5 sequence (Q64346 whole entry): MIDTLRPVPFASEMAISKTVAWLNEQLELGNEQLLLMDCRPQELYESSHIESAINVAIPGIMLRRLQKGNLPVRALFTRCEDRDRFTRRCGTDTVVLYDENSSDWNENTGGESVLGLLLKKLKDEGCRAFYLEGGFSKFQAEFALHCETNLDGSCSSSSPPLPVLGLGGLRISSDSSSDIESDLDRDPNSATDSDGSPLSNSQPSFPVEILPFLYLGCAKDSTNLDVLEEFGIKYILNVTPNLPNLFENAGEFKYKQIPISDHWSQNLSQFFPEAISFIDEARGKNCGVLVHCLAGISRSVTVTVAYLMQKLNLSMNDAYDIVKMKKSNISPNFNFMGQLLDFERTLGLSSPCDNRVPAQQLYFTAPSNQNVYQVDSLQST

[25] = target: T5, Dual specificity protein phosphatase 6
[26] = target: Voltage-gated inwardly rectifying potassium channel KCNH2 (Homo sapiens, UniProt Q12809); conditions: Potency;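 further: confirmatory quantitative high-throughput screen measuring inhibition of hERG channel activity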
Chain of Voltage-gated inwardly rectifying potassium channel KCNH2 (Q12809 whole entry): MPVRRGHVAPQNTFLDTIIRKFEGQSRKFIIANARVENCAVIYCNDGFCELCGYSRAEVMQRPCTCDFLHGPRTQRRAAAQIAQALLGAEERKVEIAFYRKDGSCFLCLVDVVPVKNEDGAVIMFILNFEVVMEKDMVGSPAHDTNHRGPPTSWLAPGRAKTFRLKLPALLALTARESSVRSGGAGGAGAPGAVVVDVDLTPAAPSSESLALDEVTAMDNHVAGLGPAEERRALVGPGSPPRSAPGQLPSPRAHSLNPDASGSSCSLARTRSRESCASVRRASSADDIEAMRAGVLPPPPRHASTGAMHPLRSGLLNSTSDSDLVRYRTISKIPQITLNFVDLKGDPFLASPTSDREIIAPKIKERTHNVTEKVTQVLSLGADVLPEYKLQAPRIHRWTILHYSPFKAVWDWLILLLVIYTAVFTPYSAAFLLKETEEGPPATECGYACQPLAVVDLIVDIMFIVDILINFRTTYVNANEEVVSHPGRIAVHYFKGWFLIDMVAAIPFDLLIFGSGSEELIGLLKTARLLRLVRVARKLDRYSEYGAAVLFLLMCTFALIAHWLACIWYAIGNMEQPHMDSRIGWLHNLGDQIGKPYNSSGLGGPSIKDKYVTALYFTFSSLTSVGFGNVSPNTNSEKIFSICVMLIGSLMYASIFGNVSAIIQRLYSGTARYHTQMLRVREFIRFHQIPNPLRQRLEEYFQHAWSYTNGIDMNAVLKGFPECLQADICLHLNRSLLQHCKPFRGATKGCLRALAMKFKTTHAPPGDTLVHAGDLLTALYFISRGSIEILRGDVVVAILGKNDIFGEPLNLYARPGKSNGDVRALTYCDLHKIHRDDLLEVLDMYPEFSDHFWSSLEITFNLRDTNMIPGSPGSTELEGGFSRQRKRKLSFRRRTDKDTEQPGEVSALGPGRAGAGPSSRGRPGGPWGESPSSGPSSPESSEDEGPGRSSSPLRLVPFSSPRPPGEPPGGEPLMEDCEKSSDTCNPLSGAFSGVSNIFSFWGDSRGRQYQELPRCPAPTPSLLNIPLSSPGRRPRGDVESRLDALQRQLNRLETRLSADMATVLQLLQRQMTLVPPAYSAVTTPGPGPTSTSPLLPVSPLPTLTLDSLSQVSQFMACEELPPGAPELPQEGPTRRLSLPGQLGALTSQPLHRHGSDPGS

[27] = inhibitors of SFLLRN-triggered platelet P-selectin exposure, dose response, cell-based, fluorescence, flow cytometry, human platelets (AID 2511); assay type: functional
[28] = Luminescence Cell-Based Dose Confirmation HTS to Identify Inhibitors of Platelet Dense Granule Release. [Related pubchem assays: 1663 (Primary HTS), 1678 (Summary of Project)]; assay type: functional
[29] = target: Luciferin 4-monooxygenase (Photinus pyralis, UniProt P08659); assay: firefly luciferase enzyme inhibitors, dose response, biochemical, luminescence (AID 1891)
[30] = Luminescence Cell-Based Dose Response Follow up to Identify Inhibitors of Platelet Dense Granule Release. [Related pubchem assays (depositor defined):AID1663, AID1678, AID1889, AID2519]; assay type: functional

## CC1=C/C(=N\OS(=O)(=O)c2ccccc2)C(C)=CC1=O
[1]
  AC50: 554 nM (active)
[2]
  IC50: 3.09 µM (active)
[3]
  CC50: 15.6 µM (active)
[4]
  AC50: 1.17 µM (active)
[5]
  EC50: 14.5 µM (active)
[6]
  EC50: > 92.5 µM (inactive)
[7]
  CC50: 12 µM (active)
[8]
  EC50: > 92.5 µM (inactive)
[9]
  IC50: 3.73 µM (active)
[10]
  IC50: 3.71 µM (active)
[11]
  EC50: 16.4 µM (active)
[12]
  EC50: > 92.5 µM (inactive)
[13]
  IC50: 12.3 µM (active)

## COc1cc(/C=C2\CC/C(=C\c3cc(OC)c(O)c(OC)c3)C2=O)cc(OC)c1O
[14]
  IC50: > 64 µM (inactive)
[4]
  AC50: 4.41 µM (active)
[15]
  CC50: 3.3 µM (active)
[16]
  IC50: 5.75 µM (active)
[17]
  AC50: 8.22 µM (active)
[18]
  IC50: > 80 µM (inactive)
[9]
  IC50: 24.7 µM (active)
[19]
  AC50: 86.6 µM (active)

## COc1ccc(-c2csc(Nc3cccc(C)n3)n2)cc1
[20]
  IC50: > 67.5 µM (inactive)
[21]
  IC50: > 67.5 µM (inactive)

## Cc1ccccc1Cn1c(=O)n(-c2ccccc2)c(=O)n([C@H](C(=O)O)C(C)C)c1=O
[22]
  IC50: > 100 µM (not active)
[23]
  IC50: > 100 µM (not active)
[24]
  IC50: > 100 µM (inactive)
[25]
  IC50: > 100 µM (inactive)

## CCN(CC)C(=O)N[C@@H]1C[C@@H]2c3cccc4[nH]cc(c34)C[C@H]2N(C)C1
[26]
  AC50: 25.1 µM (inconclusive)

## CCCCC(=O)Nc1cccc(NC(=O)c2ccccc2Br)c1
[27]
  EC50: < 3 µM (active)
[28]
  EC50: 6.9 µM (active)
[29]
  EC50: > 112 µM (not active)
[30]
  EC50: 500 µM (inactive)

Source: ChEMBL document CHEMBL1201862, “PubChem BioAssay data set” (2004)
